The text below walks through data of patent publication US8637516B2 (IRM LLC, priority 2010, dated 2014).

Assay [1] deals with T1, Ba/F3 cells transformed with human Tel-TrkA (Homo sapiens, UniProt P04629).
T1 construct: expressed in transfected cells; host or cells: Ba/F3 murine hematopoietic progenitor cells (luciferase expressing); the other entry of the earlier key: ETV6 (P41212, Transcription factor ETV6)
The assay can be described thus: Proliferation of Ba/F3 cells transformed with human Tel-TrkA (Ba/F3 Tel-TrkA). It counts as cell-based. As to conditions: Table 1; 48 hours, Bright Glo luminescence; read-out: Ba/F3 Tel-TrkA. The text has this: (§1) Compound dilutions were made in 384 well plates.
(§2) The emited luminiscence is quantified using ViewLux (PerkinElmer).

For the next assay, the system named is parental Ba/F3 cells. The assay can be described thus: Proliferation of parental (untransformed, wt) Ba/F3 cells (BAF3/WT). It counts as cell-based, murine. The note with it: Mus musculus, Table 1, parental cells with IL3, 48 hours. On the procedure:
as §1
Compounds were tested for their ability to inhibit the proliferation of wt Ba/F3 cells and Ba/F3 cells transformed with constitutively expressed luciferase reporter and BCR-ABL or Tel-FMS or other Tel fusion kinases (EGFR, JAK2, ALK, BMX, FGFR3, FGFR4, FGR2, FLT1, FLT3, IGF1R, INSR, KDR, KIT, LCK, LYN, MEK, MET, PDGFRα, PDGFRβ, RET, RON, ROS, SRC, SYK, TIE and TYRO) or BRafV600E. Parental Ba/F3 cells were maintained in media containing recombinant mouse IL3 and the kinase transformed Ba/F3 cells were maintained in media without IL-3. 7.5 nl of compounds were spotted to each well of 1536-well assay plates by Liquid handling System Echo 555 (Labcyte). 700 cells were then plated into each well of the assay plates in 7 uL culture media per well and compounds were tested at 0.17 nM to 10 uM in 3-fold serial dilutions. The cells were then incubated for 48 hours at 37° C. 3 uL of Bright-Glo® (Promega) was added to each well and the plates were read using ViewLux (PerkinElmer).
as §2

T1 sequence (P04629 510-796 limits assumed): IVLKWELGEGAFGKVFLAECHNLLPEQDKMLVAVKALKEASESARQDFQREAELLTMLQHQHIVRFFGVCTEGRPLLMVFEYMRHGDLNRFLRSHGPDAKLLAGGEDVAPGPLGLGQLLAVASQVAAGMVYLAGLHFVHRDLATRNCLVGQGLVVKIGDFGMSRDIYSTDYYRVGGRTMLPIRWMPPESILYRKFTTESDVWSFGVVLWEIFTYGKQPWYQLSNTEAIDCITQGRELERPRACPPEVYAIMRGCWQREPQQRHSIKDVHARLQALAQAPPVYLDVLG

Take `O=C(COc1ccc(F)cc1)Nc1cnc2ccc(N3CCC[C@@H]3c3cccc(F)c3)nn12` [X-26]: the IC50 in assay [1] was 85 nM; in the assay with parental Ba/F3 cells, more than 10000 nM.
Taken in the same sequence, the figures for `O=C(NOC1CCCCO1)c1cnc2ccc(N3CCC[C@@H]3c3cccc(F)c3)nn12` (some centres unmarked) [X-144] were 128 nM and more than 10000 nM.
For the compound `[2H][C@]1(c2cccc(F)c2)CCCN1c1ccc2ncc(C(N)=O)n2n1` [X-9], the figures for the IC50 (in assay [1]; with parental Ba/F3 cells) were 12 nM and more than 10000 nM, respectively.
In the case of `NS(=O)(=O)N1CCC(NC(=O)c2cnc3ccc(N4CCC[C@@H]4c4cccc(F)c4)nn23)CC1` [X-29, (R)-6-(2-(3-fluorophenyl)pyrrolidin-1-yl)-N-(1-sulfamoylpiperidin-4-yl)imidazo[1,2-b]pyridazine-3-carboxamide], the IC50 is 239 nM in assay [1] and more than 10000 nM in the assay with parental Ba/F3 cells.
For `C[C@@H]1CN(c2ccc3ncc(C#N)n3n2)[C@@H](c2cccc(F)c2)C1(F)F` [X-4, 6-((2S,4R)-3,3-difluoro-2-(3-fluorophenyl)-4-methylpyrrolidin-1-yl)imidazo[1,2-b]pyridazine-3-carbonitrile] the same measures were 155 nM and more than 10000 nM.
For `O=C(NCCCCO)c1cnc2ccc(N3CCC[C@@H]3c3cccc(F)c3)nn12` [X-20] the same measures were 30 nM and more than 10000 nM.
`O=C(NO)c1cnc2ccc(N3C[C@@H](F)C[C@@H]3c3cccc(F)c3)nn12` [X-153]: the IC50 was 10 nM in assay [1] and more than 10000 nM in the assay on parental Ba/F3 cells.
Consider `O=C(NCCC(F)(F)F)c1cnc2ccc(N3CCC[C@@H]3c3cccc(F)c3)nn12` [X-76], for which the IC50 was 34 nM in assay [1] and more than 10000 nM in the assay on parental Ba/F3 cells.
In the case of `CC(C)(C)[C@@H](CO)NC(=O)c1cnc2ccc(N3CCC[C@@H]3c3cccc(F)c3)nn12` [X-103], the IC50 in assay [1] was 379 nM; with parental Ba/F3 cells, more than 10000 nM.
In the case of `COCCC(=O)Nc1cnc2ccc(N3CCC[C@@H]3c3cccc(F)c3)nn12` [X-173], the IC50 in assay [1] is 229 nM; with parental Ba/F3 cells, more than 10000 nM.
Taken in the same sequence, the figures for `O=C(NC[C@H](O)CO)c1cnc2ccc(N3CCC[C@@H]3c3cccc(F)c3)nn12` [X-105] were 388 nM and more than 10000 nM.
`CCOC(=O)c1cnc2ccc(N3C[C@H](O)C[C@@H]3c3cccc(F)c3)nn12` [X-160, ethyl 6-((2R,4R)-2-(3-fluorophenyl)-4-hydroxypyrrolidin-1-yl)imidazo[1,2-b]pyridazine-3-carboxylate]: the IC50 was 73 nM in assay [1] and more than 10000 nM in the assay on parental Ba/F3 cells.
Taken in the same sequence, the figures for `CC1(C)CCC(CNC(=O)c2cnc3ccc(N4CCC[C@@H]4c4cccc(F)c4)nn23)O1` (some centres unmarked) [X-36] were 120 nM and more than 10000 nM.
For `O=C(NCc1ccc(Cl)nc1)c1cnc2ccc(N3CCC[C@@H]3c3cccc(F)c3)nn12` [X-57] the same measures were 190 nM and more than 10000 nM.
Taken in the same sequence, the figures for `O=C(N[C@H]1CCCC[C@@H]1CO)c1cnc2ccc(N3CCC[C@@H]3c3cccc(F)c3)nn12` [X-28] were 112 nM and more than 10000 nM.
In the case of `O=C(NC[C@H]1CCCO1)c1cnc2ccc(N3CCC[C@@H]3c3cccc(F)c3)nn12` [X-84], the IC50 in assay [1] was 30 nM; in the assay with parental Ba/F3 cells it was more than 10000 nM.
Consider `Fc1cccc([C@H]2CCCN2c2ccc3ncc(Br)n3n2)c1` [X-1, (R)-3-bromo-6-(2-(3-fluorophenyl)pyrrolidin-1-yl)imidazo[1,2-b]pyridazine], for which the values for the IC50 (in assay [1]; in the assay on parental Ba/F3 cells) were 316 nM and more than 10000 nM, respectively.
Regarding `O=C(NC1CCN(C(=O)CO)CC1)c1cnc2ccc(N3CCC[C@@H]3c3cccc(F)c3)nn12` [X-75, (R)-6-(2-(3-fluorophenyl)pyrrolidin-1-yl)-N-(1-(2-hydroxyacetyl)piperidin-4-yl)imidazo[1,2-b]pyridazine-3-carboxamide], the IC50 in assay [1] was 98 nM; in the assay on parental Ba/F3 cells, more than 10000 nM.
For `O=C(NCCN1CCOCC1)c1cnc2ccc(N3CCC[C@@H]3c3cccc(F)c3)nn12` [X-52] the same measures were 58 nM and more than 10000 nM.
Taken in the same sequence, the figures for `NC(=NO)c1cnc2ccc(N3CCCC3c3cccc(F)c3)nn12` (centres unmarked) [X-226] were 165 nM and more than 10000 nM.
Take `O=C(NCc1cccc(N2CCOCC2)n1)c1cnc2ccc(N3CCC[C@@H]3c3cccc(F)c3)nn12` [X-25]: the IC50 in assay [1] is 37 nM; in the assay with parental Ba/F3 cells it was more than 8990 nM.
Taken in the same sequence, the figures for `N#Cc1cc(F)cc([C@H]2C[C@H](F)CN2c2ccc3ncc(C(N)=O)n3n2)c1` [X-244] were 61 nM and more than 10000 nM.
Taken in the same sequence, the figures for `COC(=O)NC(=O)c1cnc2ccc(N3CC(F)(F)C[C@@H]3c3cccc(F)c3)nn12` [X-249] were 18 nM and more than 10000 nM.
For `CCC(=O)c1cnc2ccc(N3CCC[C@@H]3c3cccc(F)c3)nn12` [X-123, (R)-1-(6-(2-(3-fluorophenyl)pyrrolidin-1-yl)imidazo[1,2-b]pyridazin-3-yl)propan-1-one], the IC50 is 97 nM in assay [1] and more than 10000 nM in the assay on parental Ba/F3 cells.
Taken in the same sequence, the figures for `O=C(c1cnc2ccc(N3CCC[C@@H]3c3cccc(F)c3)nn12)C(F)F` [X-124] were 844 nM and more than 10000 nM.
Turning to `CCONC(=O)c1cnc2ccc(N3CCCC3c3cccc(F)c3)nn12` (centres unmarked) [X-152, N-ethoxy-6-(2-(3-fluorophenyl)pyrrolidin-1-yl)imidazo[1,2-b]pyridazine-3-carboxamide], the values for the IC50 (in assay [1]; with parental Ba/F3 cells) were 42 nM and more than 10000 nM, respectively.
Taken in the same sequence, the figures for `O=C(NCc1ccccc1F)c1cnc2ccc(N3CCC[C@@H]3c3cccc(F)c3)nn12` [X-69] were 104 nM and more than 10000 nM.
With `O=C(NC1CCC1)c1cnc2ccc(N3CCC[C@@H]3c3cccc(F)c3)nn12` [X-46], the IC50 in assay [1] was 20 nM; in the assay with parental Ba/F3 cells, more than 10000 nM.
For `CC(=O)OC(C)(C)C(=O)Nc1cnc2ccc(N3CCC[C@@H]3c3cccc(F)c3)nn12` [X-188] the same measures were 46 nM and more than 10000 nM.
Turning to `CC(=O)OCC(=O)Nc1cnc2ccc(N3CCC[C@@H]3c3cccc(F)c3)nn12` [X-172, (R)-2-(6-(2-(3-fluorophenyl)pyrrolidin-1-yl)imidazo[1,2-b]pyridazin-3-ylamino)-2-oxoethyl acetate], the IC50 in assay [1] is 38 nM; in the assay on parental Ba/F3 cells it was more than 10000 nM.
For `CC(C)(C)OC(=O)N1CC(NC(=O)c2cnc3ccc(N4CCC[C@@H]4c4cccc(F)c4)nn23)C1` [X-61] the same measures were 144 nM and more than 10000 nM.
For `O=C(C=Cc1cccc(F)c1)c1cnc2ccc(N3CCC[C@@H]3c3cccc(F)c3)nn12` [X-126, (R)-3-(3-fluorophenyl)-1-(6-(2-(3-fluorophenyl)pyrrolidin-1-yl)imidazo[1,2-b]pyridazin-3-yl)prop-2-en-1-one] the same measures were 22 nM and 1090 nM.
As for `N#Cc1cccc(NC(=O)c2cnc3ccc(N4CCC[C@@H]4c4cccc(F)c4)nn23)c1` [X-65, (R)-N-(3-cyanophenyl)-6-(2-(3-fluorophenyl)pyrrolidin-1-yl)imidazo[1,2-b]pyridazine-3-carboxamide], the IC50 in assay [1] was 92 nM; with parental Ba/F3 cells, more than 9510 nM.
Taken in the same sequence, the figures for `NC(=O)c1cnc2ccc(N3CCC[C@@H]3c3cccc(F)c3)nn12` [X-6] were 51 nM and more than 10000 nM.
For the compound `CCOC(=O)c1cnc2ccc(N3CCC(=O)C3c3cccc(F)c3)nn12` (centres unmarked) [X-159, ethyl 6-(2-(3-fluorophenyl)-3-oxopyrrolidin-1-yl)imidazo[1,2-b]pyridazine-3-carboxylate], the IC50 in assay [1] is 251 nM; with parental Ba/F3 cells, more than 10000 nM.
For the compound `O=C(/C=C/c1cccc(N2CCOCC2)n1)c1cnc2ccc(N3CCC[C@@H]3c3cccc(F)c3)nn12` [X-128], the IC50 in assay [1] amounted to 174 nM; in the assay on parental Ba/F3 cells it was 1390 nM.
For `NC(=O)CNC(=O)c1cnc2ccc(N3C[C@@H](F)C[C@@H]3c3cccc(F)c3)nn12` [X-117] the same measures were 64 nM and more than 10000 nM.
As for `COCCNC(=O)c1cnc2ccc(N3CCC[C@@H]3c3cccc(F)c3)nn12` [X-51], the results for the IC50 (in assay [1]; in the assay on parental Ba/F3 cells) were 67 nM and more than 10000 nM, respectively.
Taken in the same sequence, the figures for `O=C(NCCN1CCCC1=O)c1cnc2ccc(N3CCC[C@@H]3c3cccc(F)c3)nn12` [X-86] were 191 nM and more than 10000 nM.
Take `CCOC(=O)c1cnc2ccc(N3CC(F)(F)C(F)(F)[C@@H]3c3cccc(F)c3)nn12` [X-164, (S)-ethyl 6-(3,3,4,4-tetrafluoro-2-(3-fluorophenyl)pyrrolidin-1-yl)imidazo[1,2-b]pyridazine-3-carboxylate]: the IC50 in assay [1] was 600 nM; in the assay on parental Ba/F3 cells it was more than 10000 nM.
Taken in the same sequence, the figures for `[2H]C1([2H])N(c2ccc3ncc(C(N)=O)n3n2)C([2H])(c2cccc(F)c2)C([2H])([2H])C1([2H])[2H]` (centres unmarked) [X-13] were 110 nM and more than 10000 nM.
With `O=C(NCCF)c1cnc2ccc(N3C[C@@H](F)C[C@@H]3c3cccc(F)c3)nn12` [X-112, 6-((2R,4S)-4-fluoro-2-(3-fluorophenyl)pyrrolidin-1-yl)-N-(2-fluoroethyl)imidazo[1,2-b]pyridazine-3-carboxamide], the IC50 in the assay on parental Ba/F3 cells was 5450 nM.
